Measurements taken from patent US10751396B2, “Early hyperlipidemia promotes endothelial activation via a caspase-1-sirtuin 1 pathway” (Temple University—Of The Commonwealth System of Higher …, priority 2015, dated 2020).

Tests used:
Format in all cases: cell-based, human
caspase-1 = experiment: Caspase-1 activity assay (FAM-YVAD-FMK, flow cytometry) in HAECs; conditions: 6 h, oxLDL (100 μM), LPA (30 μM), LPC (30 μM)
Description: (§1) Active caspase-1 level was determined with APO LOGIX kit (Cell Tech., Mountain View, Calif.). The kit contains a carboxyfluorescein (FAM) [Excitation/Emission (nm):490/520]-labeled peptide fluoromethyl ketone (FMK) caspase-1 inhibitor (FAM-YVAD-FMK), which irreversibly binds to active caspase-1. All procedures were performed according to the manufacturer's instruction. Briefly, HAECs (≤passage 9) were cultured in 6-well plates and serum starved overnight to quiescent the cells before treatment. Next day, HAECs were treated with indicated stimuli for 6 hr. Cells were then digested by trypsin-EDTA and suspended at 1×10^6 cells/ml. 150 μl of cell suspension were incubated at 37° C. with 1× FAM-YVAD-FMK for 1 hour then washed with 1× washing buffer. Unfixed caspase-1 stained cells were then incubated with 7-aminoactinomycin D (7-AAD; cell membrane integrity marker) (BD Pharmingen, San Diego, Calif.) for no more than 10 min before analysis. The Calibur flow cytometer (BD Biosciences, San Jose, Calif.) was used to determine caspase-1 active (Caspase-1^+) and 7-AAD^+ cells. Data were analyzed with the FlowJo software (Tree Star, Ashland, Oreg.).
Active caspase-1 levels were determined with an APO LOGIX kit (Cell Technology, Mountain View, Calif.). The kit contained a carboxyfluorescein (FAM) (excitation/emission (nm): 490/520)-labeled peptide fluoromethyl ketone (FMK) caspase-1 inhibitor (FAM-YVAD-FMK), which irreversibly binds to active caspase-1. The procedures were performed according to the manufacturer's instructions. HAECs were cultured in 6-well dishes and serum-starved overnight to ensure quiescence of the cells before treatment. The next day, HAECs were treated with the indicated stimuli for 6 h. Cells were harvested and suspended at 1×10^6 cells/ml. The cell suspension (150 μl) was incubated in 37° C. with 1× FAM-YVAD-FMK for 1 h. After being washed with 1× washing buffer, the cells were fixed with fixative buffer and stored in 4° C. for up to 24 h. To determine the cell membrane integrity, the unfixed cells were stained with 7-AAD (Pharmingen) (0.25 μg/test) and incubated for no more than 10 min before analysis.
(§2) All flow cytometric data were analyzed by using the FlowJo software (Tree Star, Ashland, Oreg.). The uncompensated data were collected from the flow cytometer (either FACSCalibur flow cytometer or LSRII flow cytometer; BD Biosciences). Forward and side scatter gates were used to select live cell populations from clumps and debris. The positive gating was determined by its matched IgG control, and single staining was used to determine the compensation parameter. Different gates were established to analyze the data according to cell size as described in our figures.

HAECs [1] = experiment: Caspase-1/7-AAD co-staining for pyroptosis in HAECs
Description: FIG. 7, comprising FIG. 7A through FIG. 7D, depicts experimental results showing Oxidized low-density lipoprotein (oxLDL) and its components induce caspase-1 (casp-1) activation in human aortic endothelial cells (HAECs) via a reactive oxygen species (ROS)-mediated p-athway. FIG. 7A depicts pyroptotic cell death in HAECs caused by activation of casp-1 induced by oxLDL and its components. HAECs were cultured and treated with low-density lipoprotein (LDL; 100 μg/mL), oxLDL (100 μg/mL), oxLDL-derivatives lysophosphatidic acid (LPA, 100 μM), or lysophosphatidylcholine (LPC, 15 μM) as indicated for 6 hours. Casp-1 activity was determined by a commercial kit, and 7-aminoactinomycin D (7-AAD) fluorescence dye was used to determine the cell membrane integrity. Casp-1^+/7-AAD^+ cells were gated as pyrototic cells (Q3), casp-1^+ single positive cells (Q2) were gated as inflammatory cells, and 7-AAD^+ single positive cells (Q4) were gated as necrotic cells. FIG. 7B depicts ROS levels in pyroptotic cells. ROS levels were determined by dihydroethidium (DHE) fluorescence dye staining, and the mean fluorescence intensity (MFI) of DHE^+ cell fraction was determined. […] Allopurinol (1 mmol/L) and Apocynin (100 μM) were added 1 hour before oxLDL treatment. HAECs were then treated with oxLDL (100 μg/mL) for 6 hours and stained for caspase-1 activity. FIG. 7D depicts mRNA upregulation of inflammasome components, including NLRP1 (Nod-like receptor protein 1), NLRP3 (Nod-like receptor 3), PYCARD (or ASC, inflammasome adaptor apoptosis-associated speck-like protein containing a CARD), caspase-1, and IL-1β (interleukin-1β) in HAECs treated with oxLDL. Data are expressed as mean±SE. *P<0.05, changes with statistical significance.
as §1
Active caspase-1 levels were determined with an APO LOGIX kit (Cell Technology, Mountain View, Calif.). The kit contained a carboxyfluorescein (FAM) (excitation/emission (nm): 490/520)-labeled peptide fluoromethyl ketone (FMK) caspase-1 inhibitor (FAM-YVAD-FMK), which irreversibly binds to active caspase-1. The procedures were performed according to the manufacturer's instructions. HAECs were cultured in 6-well dishes and serum-starved overnight to ensure quiescence of the cells before treatment. The next day, HAECs were treated with the indicated stimuli for 6 h. Cells were harvested and suspended at 1×10^6 cells/ml. […]

VEGFR-2 = VEGFR-2 expression in LPC-treated HAECs by flow cytometry; conditions: LPC (30 μM) 6 h; caspase-1 inhibitor or Sirt-1 activator 10 μM pretreatment where named
Description: FIG. 17, comprising FIG. 17A through FIG. 17D, depicts experimental results showing inhibition of caspase-1 activation and activation of Sirt-1 increase VEGFR-2 expression. FIG. 17A depicts experiments showing caspase-1 depletion increases VEGFR-2 expression. A microarray data-mining analysis was performed by analyzing the indicated microarray dataset deposited in the National Institutes of Health NCBI-Geo-profile database. The gene expression value was determined based on the relative threshold cycle on the database. […] In addition, depletion of caspase-1 slightly increases the expressions of the caspase-1-cleaving substrates cytokines IL-1β and IL-18. […] FIG. 17B depicts caspase-1 inhibition and Sirt-1 activation increase the expression of VEGFR-2 after LPC treatment in HAECs. HAECs pretreated with the caspase-1 inhibitor (10 μM) and Sirt-1 activator (10 μM) and then treated with LPC (30 μM) for 6 h have an increased expression of VEGFR-2. FIG. 17C depicts three cell size gates were established, small, medium, and large according to FSC (y axis); and VEGFR-2 expression (x axis) was measured in those gated cells to analyze differential VEGFR-2 expressions according to the cell size after treatments with LPC (30 μM), caspase-1 inhibitor (10 μm), and Sirt-1 activator (10 μm) for 6 h. […] FIG. 17D depicts bar graphs showing the quantitation data of VEGFR-2 expressions. *, p<0.05.
as §2

HAECs [2] = experiment: Tube formation assay in Matrigel; conditions: LPC (30 μm) with or without caspase-1 inhibitor (10 μm), Matrigel 16 h
Description: FIG. 18, comprising FIG. 18A and FIG. 18B, depicts experimental results showing tube formation, as an in vitro model of angiogenesis, is improved after caspase-1 inhibition in LPC-treated cells. FIG. 18A depicts experiments where HAECs were treated with LPC (30 μm) and caspase-1 inhibitor (10 μm) for 6 h. After the treatment, the cells were incubated in the Matrigel for 16 h for the analysis of tube formation. FIG. 18B depicts bar graph showing the increases of total master segment lengths after the inhibition of caspase-1 in LPC-treated HAECs.*, p<0.05.
The Matrigel matrix (Bedford, Mass.) was used to coat the 96-well plates. Human aortic endothelial cells were cultured. The cells were treated with caspase-1 inhibitor (Anaspec, Fremont, Calif.) and proatherogenic stimulus LPC for 24 h. HAECs were harvested and suspended. Cell concentration was determined and added to each Matrigel-coated well and incubated for 16-18 h. Images were collected using the inverted microscope.

CCCCCCCCCCCCCCCC(=O)OC[C@@H](O)COP(=O)([O-])OCC[N+](C)(C)C [LPC, 1-hexadecanoyl-sn-glycerol-3-phosphorylcholine]
caspase-1 activation in larger size of HAECs (caspase-1; large FSC gate): 52.8%
caspase-1 activation in smaller size of HAECs (caspase-1; small FSC gate): 38.2%
induction of inflammation, pyroptosis and necrosis (caspase-1/7-AAD gating) (HAECs [1]; HAECs, 6-hour stimulation, oxLDL 100 μg/mL, LPA 100 μM, LPC 15 μM): induced inflammation, inflammatory cell death (pyroptosis), and necrosis
7-AAD+ pyroptosis in large size of caspase-1(+) HAECs (HAECs [1]; LPC-treated HAECs): 9.93%
7-AAD+ pyroptosis in medium size of caspase-1(+) HAECs (HAECs [1]; LPC-treated HAECs): 20.17%
7-AAD+ pyroptosis in smaller size of caspase-1(+) HAECs (HAECs [1]; LPC-treated HAECs): 38.77%
VEGFR-2 expression in the larger size of HAECs (VEGFR-2): 34.3%
VEGFR-2 expression in the medium size of HAECs (VEGFR-2): 22.1%
VEGFR-2 expression in the smaller size of HAECs (VEGFR-2): 11.3%
total master segment length of tube formation (HAECs [2]): 317 μm
